Key:
human ENPP-1 enzyme [1] = molecular target: T1, human ENPP-1 enzyme (Homo sapiens, UniProt P22413); experiment: ENPP1 Enzyme Assay with TMP-pNP Substrate (absorbance at 405 nm); assay type: biochemical; conditions: for inhibition at 10 µM: read-out: TMP-pNP: % inhibition at 10 uM, 10 uM compound, 200 μM TMP-pNP substrate
T1 construct: purchased R&D Systems
T1 sequence (P22413 1-925): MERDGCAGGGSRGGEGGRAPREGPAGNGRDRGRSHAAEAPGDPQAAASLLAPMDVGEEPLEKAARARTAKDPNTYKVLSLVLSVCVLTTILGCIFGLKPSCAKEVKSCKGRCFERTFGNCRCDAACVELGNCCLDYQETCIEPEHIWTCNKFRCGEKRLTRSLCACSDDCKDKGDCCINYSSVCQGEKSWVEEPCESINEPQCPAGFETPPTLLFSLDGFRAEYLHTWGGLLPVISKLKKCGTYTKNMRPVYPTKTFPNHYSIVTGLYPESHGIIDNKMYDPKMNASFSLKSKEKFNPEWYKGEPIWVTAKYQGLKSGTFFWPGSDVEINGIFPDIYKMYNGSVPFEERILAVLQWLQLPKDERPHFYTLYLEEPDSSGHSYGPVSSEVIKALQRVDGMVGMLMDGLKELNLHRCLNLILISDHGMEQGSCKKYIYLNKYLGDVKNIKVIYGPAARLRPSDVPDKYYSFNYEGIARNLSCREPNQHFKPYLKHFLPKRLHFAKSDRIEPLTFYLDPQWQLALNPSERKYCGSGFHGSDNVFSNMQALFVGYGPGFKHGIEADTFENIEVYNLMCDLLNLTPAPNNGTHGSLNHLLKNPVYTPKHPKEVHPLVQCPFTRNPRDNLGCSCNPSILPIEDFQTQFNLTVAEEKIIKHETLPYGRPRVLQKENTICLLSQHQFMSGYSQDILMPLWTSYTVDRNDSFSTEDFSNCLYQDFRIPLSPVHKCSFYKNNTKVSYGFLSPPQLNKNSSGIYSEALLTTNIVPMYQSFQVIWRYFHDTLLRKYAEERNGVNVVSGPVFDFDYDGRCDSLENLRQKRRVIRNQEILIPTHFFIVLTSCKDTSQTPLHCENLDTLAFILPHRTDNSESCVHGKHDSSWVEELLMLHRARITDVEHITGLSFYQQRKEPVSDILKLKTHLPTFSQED
Experimental: ENPP1 Enzyme Assay with TMP-pNP Substrate:
ENPP-1 hydrolyzes thymidine 5′monophosphate p-nitrophenyl ester (TMP-pNP) to nucleotide-5′-monophosphate and p-nitrophenol, which is a chromogenic product. The amount of p-nitrophenol product formed is measured using its absorbance at 405 nm, which is directly proportional to enzyme activity. Different concentrations of inhibitors (synthetic molecules #1-7; see Table 1) were pre-incubated with 15 ng/well of human ENPP-1 enzyme (R&D Systems) for 15 minutes at 37° C. The reaction was initiated by adding 200 μM TMP-pNP and incubating for 10 minutes at 37° C. The final assay reaction mixture contained a buffer of 50 mM Tris pH 8.0, 250 mM NaCl, 0.5 mM CaCl2, 1 μM ZnCl2 and 1% DMSO. The amount of product formed was measured directly in a Tecan® spectrophotometer. Maximal activity control samples (containing enzyme, substrate, and buffer in the absence of ENPP1 inhibitors: MAX) and background control samples (containing enzyme, substrate, and buffer plus a fully inhibitory concentration (3 μM) of the reference ENPP1 Inhibitor, MV-0000002: MIN) are simultaneously evaluated in order to calculate the percent inhibition at each compound concentration as follows:
(§1) % inhibition=(([MAX−MIN]−[COMPOUND−MIN])/[MAX−MIN])*100
The IC50 values for percent inhibition versus compound concentration were determined by fitting the inhibition curves (percent inhibition versus inhibitor concentration) using a four-parameter variable slope model in GraphPad Prism® software. Ki values are derived from the IC50 values using the Cheng-Prusoff equation:
Ki=IC50/(1+[TMP-pNP]/Km),

human ENPP-1 enzyme [2] = molecular target: T1, human ENPP-1 enzyme; experiment: ENPP1 Enzyme Assay with cGAMP Substrate (AMP-Glo); assay type: biochemical; conditions: for inhibition at 1 µM: 1 uM compound; for inhibition at 1 µM / inhibition at 10 µM: 20 μM 2′3′-cGAMP substrate; for inhibition at 10 µM: 10 uM compound
Text: ENPP1 Enzyme Assay with cGAMP Substrate:
Ectonucleotide pyrophosphatase/phosphodiesterase 1 (ENPP-1) is a transmembrane glycoprotein that hydrolyzes nucleotides and nucleotide derivatives with the formation of nucleoside-5′-monophosphates. ENPP-1 hydrolyzes 2′3′-cGAMP (cGAMP), breaking it down into 5′-AMP and 5′-GMP. The 5′-AMP formed from the reaction is detected using the AMP-Glo® Kit (Promega). The assay kit contains two reagents. The first reagent terminates the enzymatic reaction, removes ATP (using adenylyl cyclase), and converts 5′-AMP produced into ADP (using polyphosphate: AMP phosphotransferase). The second reagent converts ADP to ATP (using adenylate kinase) and generates light from ATP using the luciferin/luciferase reaction. The amount of light measured is proportional to the amount of 5′-AMP produced by ENPP1.
Different concentrations of exemplary ENPP1 inhibitors (synthetic molecules #1-7; see Table 1) were pre-incubated with 5 ng/well of human ENPP-1 enzyme (R&D Systems) for 15 minutes at 37° C. The reaction was initiated by adding 20 μM 2′3′-cGAMP and incubating for 30 minutes at 37° C. The final assay reaction mixture contained a buffer of 50 mM Tris pH 8.0, 250 mM NaCl, 0.5 mM CaCl2, 1 μM ZnCl2 and 1% DMSO. At the end of the incubation, the reaction was stopped by adding 12 μl of AMP-Glo reagent-1 and mixing the reaction uniformly for 5 minutes, followed by incubation at room temperature for one hour. Then 25 μl of AMP Glo reagent-2 was added to the reaction, mixed uniformly with a pipette, and incubated at room temperature for one hour to convert the ADP formed from reagent-1 to ATP and light. The generated light was measured in a Perkin Elmer Victor® instrument. Maximal activity control samples (containing enzyme, substrate, and buffer in the absence of ENPP1 inhibitors: MAX) and background control samples (containing enzyme, substrate, and buffer plus a fully inhibitory concentration (3 μM) of the reference ENPP1 Inhibitor, MV-0000002: MIN) were simultaneously evaluated in order to calculate the percent inhibition at each compound concentration as follows:
as §1
The IC50 values for percent inhibition versus compound concentration were determined by fitting the inhibition curves using a four-parameter variable slope model in GraphPad Prism® software. Ki values are derived from the IC50 values using the Cheng-Prusoff equation: […]

| SMILES | inhibition at 10 µM (human ENPP-1 enzyme [1]) | inhibition at 1 µM (human ENPP-1 enzyme [2]) | Ki (human ENPP-1 enzyme [1]) | Ki (human ENPP-1 enzyme [2]) | inhibition at 10 µM (human ENPP-1 enzyme [2]) |
| --- | --- | --- | --- | --- | --- |
| COc1cc2ncc(C(N)=O)c(N3CCC(CCNS(N)(=O)=O)CC3)c2cc1OC [Ex 2, 6,7-dimethoxy-4-(4-(2-(sulfamoylamino)ethyl)piperidin-1-yl)quinoline-3-carboxamide] | ≥ 75% | ≥ 75% |  |  |  |
| COc1cc2ncnc(N3CCc4c(cccc4S(N)(=O)=O)C3)c2cc1OC [Ex 6, 2-(6,7-dimethoxyquinazolin-4-yl)-1,2,3,4-tetrahydroisoquinoline-5-sulfonamide] |  | ≥ 75% | > 1000 nM | 100 to 1000 nM |  |
| COc1cc2ncnc(NCCc3cccc(NS(N)(=O)=O)c3)c2cc1OC [Ex 7, N-(3-(2-((6,7-dimethoxyquinazolin-4-yl)amino)ethyl)phenyl)sulfonic amide] |  |  | > 1000 nM | 100 to 1000 nM | ≥ 75% |

Further lines, results first:

| inhibition at 10 µM (human ENPP-1 enzyme [1]) | inhibition at 1 µM (human ENPP-1 enzyme [2]) | Ki (human ENPP-1 enzyme [1]) | Ki (human ENPP-1 enzyme [2]) | inhibition at 10 µM (human ENPP-1 enzyme [2]) | SMILES |
| --- | --- | --- | --- | --- | --- |
|  |  | > 1000 nM | > 1000 nM | ≥ 75% | Cn1ncc2c(N3CCC(CCNS(N)(=O)=O)CC3)ncnc21 [Ex 3, N-(2-(1-(1-methyl-1H-pyrazolo[3,4-d]pyrimidin-4-yl)piperidin-4-yl)ethyl)sulfonic amide] |
| ≥ 75% |  | 100 to 1000 nM | ≤ 100 nM | ≥ 75% | COc1cc2ncnc(N3CCC4(CC3)CN(S(N)(=O)=O)C4)c2cc1OC [Ex 5, 7-(6,7-dimethoxyquinazolin-4-yl)-2,7-diazaspiro[3.5]nonane-2-sulfonamide] |
